Results as given in patent US20250177383A1, “DI-CYCLOPROPYL BASED IL-17A MODULATORS AND USES THEREOF” (DICE ALPHA, INC., priority 2022, published 2025).
Where two headings read alike, the source gives them in different places.

Assays:
[1] = Microsomal stability, human liver microsomes; assay type: in vitro ADME; settings: human liver microsomes 0.5 mg protein/mL, 1 μM test compound, NADPH, 37° C., 60 min; read-out: HLM Clint
Experimental: (§1) Test compound and control working solution preparation. 5 μL of a compound and control stock solution (10 mM in dimethyl sulfoxide (DMSO)) were diluted with 495 μL of acetonitrile (ACN).
(§2) NADPH cofactor preparation. The appropriate amount of NADPH powder was weighed and diluted into a 10 mM MgCl2 solution (working solution concentration: 10 mM; final concentration in reaction system: 1 mM). Materials: NADPH powder: β-Nicotinamide adenine dinucleotide phosphate reduced form, tetrasodium salt; NADPHA4Na (Vendor: Chem-Impex International, Cat. No. 00616).
(§3) Liver Microsome Preparation. The appropriate concentrations of microsome working solutions were prepared in 100 mM potassium phosphate buffer. Materials: Human Liver Microsomes (HLM) Cat No. 452117 and Lot No. 38295 (Corning); SD Rat Liver Microsomes (RLM) Cat No. R1000 and Lot No. 1910100 (Xenotech).
(§4) Stop solution preparation. Cold (4° C.) acetonitrile (ACN) containing 200 ng/mL tolbutamide and 200 ng/mL labetalol as internal standards (IS) were used as the stop solution.
(§5) Assay Procedure. Empty incubation plates (T60 and NCF60) were warmed for 10 mins prior to use. Liver microsomes were diluted to 0.56 mg/mL in 100 mM phosphate buffer. 445 uL microsome working solutions (0.56 mg/mL) were transferred into pre-warmed ‘Incubation’ plates T60 and NCF60, Then ‘Incubation’ plates T60 and NCF60 were pre-incubated for 10 min at 37° C. with constant shaking. 54 μL liver microsomes were transferred to the blank plate, then 6 μL NAPDH cofactor were added to the blank plate, followed by the addition 180 μL quenching solution to the blank plate. 5 μL compound working solution (100 μM) were added into ‘incubation’ plates (T60 and NCF60) containing microsomes and mixed thoroughly 3 times. To the NCF60 plate 50 μL of buffer were added and mixed 3 times thoroughly. Start timing; plate was incubated at 37° C. for 60 min while shaking. In ‘Quenching’ plate TO, were added 180 μL quenching solution and 6 μL NAPDH cofactor. Plate is chilled to prevent evaporation. The T60 plate, was mixed 3 times thoroughly, and immediately 54 μL of the mixture was removed for the 0-min time point to ‘Quenching’ plate. Then 44 μL NAPDH cofactor was added to the incubation plate (T60). Start timing; plate was incubated at 37° C. for 60 min while shaking. Final concentrations of each component in the incubation media: Microsome (0.5 mg protein/mL); Test compound (1 μM); control compound ([…]); ACN (0.99%); and DMSO (0.01%). At 5, 15, 30, 45, and 60 min, 180 μL quenching solution was added to ‘Quenching’ plates, mixed once, and serially transferred 60 μL of sample from T60 plate per time point to ‘Quenching’ plates. For the NCF60 plate, mix once and 60 μL of sample was transferred from the NCF60 incubation to ‘Quenching’ plate containing quenching solution at the 60-min time point (Start time 1:00:00 and End Time 0:00:00).
(§6) All sampling plates were shaken for 10 min, then centrifuged at 4000 rpm for 20 minutes at 4° C. 80 μL of supernatant were transferred into 240 μL HPLC water, and mixed by plate shaker for 10 min. Each bioanalysis plate was sealed and shaken for 10 minutes prior to LC-MS/MS analysis.

Rat pharmacokinetics, PO = assay type: in vivo; settings: male rat, PO 5 mg/kg oral gavage, plasma, Linear/log trapezoidal; read-out: Rat PO AUC0-t
Experimental: Formulations for PO. An appropriate amount of the test article is weighed and mixed with the appropriate volume of vehicle to get a clear solution or a uniform suspension, vortexing or sonication in water bath may used. Animals are dosed within four hours after the formulation is prepared.
Formulation samples are removed from each of the formulation solutions or suspensions, transferred into 1.5 mL of polypropylene microcentrifuge tubes and run dose validated by LC/UV or LC-MS/MS.
Dose administration. For PO dosing, the dose formulation is administered via oral gavage.
Blood Collection. Each blood collection (about 0.2 mL per time point) is performed from carotid artery cannula (CAC) of each animal into a pre-chilled commercial EDTA-K2 tubes as anti-coagulant, then placed on wet ice until centrifugation. Blood samples are processed for plasma by centrifugation at approximately 4° C., 3,200 g for 10 min. Plasma is collected respectively and a certain amount of plasma from rat is transferred into pre-labeled 96 well plate or polypropylene tubes, quick frozen over dry ice and kept at −60° C. or lower until LC-MS/MS analysis. After terminal collection, all plasmas are stored at approximately −80° C. freezer until final analysis.
Plasma concentration versus time data are plotted in graph and analyzed by non-compartmental approaches using the Phoenix WinNonlin 6.3 software program. Trapezoids: Before TMax (Linear); After Tmax (Log). Partial Area Interpolations: Before TMax (Linear); After Tmax (Log).

[2] = Microsomal stability, rat liver microsomes; assay type: in vitro ADME; settings: SD rat liver microsomes 0.5 mg protein/mL, 1 μM test compound, NADPH, 37° C., 60 min; read-out: RLM Clint
Experimental: as §1, §2, §3, §4, §5, §6

IL-17A/A = target: T1, IL-17A/A (Homo sapiens, UniProt Q16552); assay: IL-17A/A HEK-Blue Cell Assay; assay type: cell-based; settings: IL-17A/A stimulation, 20 hours, SEAP readout
T1 sequence (Q16552 24-155): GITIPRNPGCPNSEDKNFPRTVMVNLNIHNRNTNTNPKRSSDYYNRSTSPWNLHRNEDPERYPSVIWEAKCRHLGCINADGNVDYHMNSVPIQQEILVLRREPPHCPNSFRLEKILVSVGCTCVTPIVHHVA
Outline: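 Cells co-expressing IL-17RA, IL-17RC and Act1 received titrated compound, top final 10 uM in 0.1% DMSO, immediately before IL-17A/A stimulation.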

IL-17A/F = target: T2, IL-17A/F (Homo sapiens, UniProt Q16552+Q96PD4); assay: IL-17A/F HEK-Blue Cell Assay; assay type: cell-based; settings: HEK-Blue IL-17 reporter cells, IL-17A/F stimulation, 20 hours, SEAP readout; read-out: IL17AF HEK Blue pIC50 (converted)
T2 sequence (Q16552 24-155): T1 sequence (Q16552 24-155)
T2 sequence (Q96PD4 31-163): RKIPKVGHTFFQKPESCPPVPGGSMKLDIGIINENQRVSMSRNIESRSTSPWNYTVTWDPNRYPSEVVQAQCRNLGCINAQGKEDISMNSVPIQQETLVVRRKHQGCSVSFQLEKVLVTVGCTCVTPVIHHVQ

[3] = HEK-Blue IL-17 reporter cells, read-out: IL17 AA HEK-5 pIC50 (converted)

| SMILES | microsomal CLint at 1 μM [1] [µL/min/mg] | AUC(0-t) (Rat pharmacokinetics, PO) [ng·h/mL] | microsomal CLint at 1 μM [2] [µL/min/mg] | IC50 (IL-17A/A; [3]) [nM] | IC50 (IL-17A/F) [nM] | IC50 (IL-17A/A; IL17 AA HEK-5 pIC50, HEK-Blue IL-17 reporter cells) [nM] |
| --- | --- | --- | --- | --- | --- | --- |
| CO[C@@H](C)C(=O)N[C@@H](C(=O)N1CCN(C)[C@H](C)C1)[C@@H](C)c1ccc(NC(=O)[C@@H](NC(=O)c2ccnn2C2CC2)C(C2CC2)C2CC2)c(F)c1 [Compound 342] | – | – | – | < 10 | 10 to 100 | – |
| CCC(=O)N[C@@H](C(=O)N1CCN(C)CC1)[C@@H](C)c1ccc(NC(=O)[C@@H](NC(=O)c2ccnn2CCF)C(C2CC2)C2CC2)c(F)c1 [Compound 216] | – | – | – | 10 to 100 | 10 to 100 | – |
| CCC(=O)N[C@@H](C(=O)N1C[C@@H](C)N(C)C[C@H]1C)[C@@H](C)c1ccc(NC(=O)[C@@H](NC(=O)C2(F)CC2)C(C2CC2)C2CC2)c(F)c1 [Compound 288] | – | – | – | < 10 | 100 to 10000 | – |
| CCC(=O)N[C@@H](C(=O)N1CCN(C)[C@H](C)C1)[C@@H](C)c1ccc(NC(=O)[C@@H](NC(=O)c2ccnn2C)C(C2CC2)C2CC2)c(F)c1 [Compound 297] | – | – | – | < 10 | 10 to 100 | – |
| CCn1nccc1C(=O)N[C@H](C(=O)Nc1ccc(C(C(NC(=O)[C@H](C)OC)C(=O)N2CCN(C)[C@H](C)C2)C(F)(F)F)cc1F)C(C1CC1)C1CC1 (single isomer, unassigned) [Compound 357] | – | – | – | 100 to 10000 | 100 to 10000 | – |
| CCC(=O)N[C@@H](C(=O)N1CCN(C)CC1)[C@@H](C)c1ccc(NC(=O)[C@@H](NC(=O)c2ccnn2CC)C(C2CC2)C2CC2)c(F)c1 [Compound 200] | – | – | – | 10 to 100 | 10 to 100 | – |
| CCc1nonc1C(=O)N[C@H](C(=O)Nc1ccc([C@H](C)[C@@H](NC(=O)CF)C(=O)N2CCNC(CF)C2)cc1F)C(C1CC1)C1CC1 (single isomer, unassigned) [Compound 302] | – | – | – | – | 100 to 10000 | 10 to 100 |
| COCC(=O)N[C@@H](C(=O)N1C[C@@H](C)N(C)C[C@H]1C)[C@@H](C)c1ccc(NC(=O)[C@@H](NC(=O)C2(F)CC2)C(C2CC2)C2CC2)c(F)c1 [Compound 289] | – | – | – | < 10 | 100 to 10000 | – |
| CCn1nccc1C(=O)N[C@H](C(=O)Nc1ccc([C@H](C)[C@@H](NC(=O)C(C)CC(F)(F)F)C(=O)N2CCN(C)[C@H](C)C2)cc1F)C(C1CC1)C1CC1 (single isomer, unassigned) [Compound 324] | – | – | – | < 10 | 10 to 100 | – |

Continued, in another order:

| microsomal CLint at 1 μM [1] [µL/min/mg] | AUC(0-t) (Rat pharmacokinetics, PO) [ng·h/mL] | microsomal CLint at 1 μM [2] [µL/min/mg] | IC50 (IL-17A/A; [3]) [nM] | IC50 (IL-17A/F) [nM] | SMILES | IC50 (IL-17A/A; IL17 AA HEK-5 pIC50, HEK-Blue IL-17 reporter cells) [nM] |
| --- | --- | --- | --- | --- | --- | --- |
| 50 to 150 | 500 to 1000 | 9.6 to 20 | – | – | CCC(=O)N[C@@H](C(=O)N1CCN(C)[C@H](C)C1)[C@@H](C)c1ccc(NC(=O)[C@@H](NC(=O)c2ccnn2CCF)[C@H]2CC[C@H](C)CC2)c(F)c1 [F, reference compound] | – |
| > 150 | 500 to 1000 | < 9.6 | – | – | CCn1nccc1C(=O)N[C@H](C(=O)Nc1ccc([C@H](C)[C@@H](NC(=O)COC)C(=O)N2CCN(C)CC2)cc1F)[C@H]1CC[C@H](C)CC1 [K, reference compound] | – |
| > 150 | 500 to 1000 | 9.6 to 20 | – | – | CCC(=O)N[C@@H](C(=O)N1CCN(C)[C@H](C)C1)[C@@H](C)c1ccc(NC(=O)[C@@H](NC(=O)c2ccnn2CC(F)F)[C@H]2CC[C@H](C)CC2)c(F)c1 [E, reference compound] | – |
| 50 to 150 | 500 to 1000 | > 20 | – | – | CCC(=O)N[C@@H](C(=O)N1C[C@@H](C)N(C)C[C@H]1C)[C@@H](C)c1ccc(NC(=O)[C@@H](NC(=O)c2ccnn2CC)[C@H]2CC[C@H](C)CC2)c(F)c1 [A, reference compound] | – |
| > 150 | < 500 | > 20 | – | – | CCn1nccc1C(=O)N[C@H](C(=O)Nc1ccc([C@H](C)[C@@H](NC(=O)N(C)C2CC2)C(=O)N2CCN(C)CC2)cc1F)[C@H]1CC[C@H](C)CC1 [J, reference compound] | – |
| > 150 | < 500 | 9.6 to 20 | – | – | CCC(=O)N[C@@H](C(=O)N1CCN(C)[C@@H](C)C1)[C@@H](C)c1ccc(NC(=O)[C@@H](NC(=O)c2ccnn2CC)[C@H]2CC[C@H](C)CC2)c(F)c1 [I, reference compound] | – |
| > 150 | 500 to 1000 | 9.6 to 20 | – | – | CCC(=O)N[C@@H](C(=O)N1CCN(C)CC1)[C@@H](C)c1ccc(NC(=O)[C@@H](NC(=O)c2ccnn2C(C)C)[C@H]2CC[C@H](C)CC2)c(F)c1 [L, reference compound] | – |
| 50 to 150 | < 500 | 9.6 to 20 | – | – | CCn1nccc1C(=O)N[C@H](C(=O)Nc1ccc([C@H](C)[C@@H](NC(=O)COC)C(=O)N2CCN(C)[C@@H](CF)C2)cc1F)[C@H]1CC[C@H](C)CC1 [B, reference compound] | – |
| > 150 | < 500 | > 20 | – | – | CCn1nccc1C(=O)N[C@H](C(=O)Nc1ccc([C@H](C)[C@@H](NC(C)=O)C(=O)N2CCN(C)[C@H](C)C2)cc1F)[C@H]1CC[C@H](C)CC1 [C, reference compound] | – |
| > 150 | 500 to 1000 | > 20 | – | – | CCC(=O)N[C@@H](C(=O)N1CCN(C)[C@H](C)C1)[C@@H](C)c1ccc(NC(=O)[C@@H](NC(=O)c2ccnn2CC)[C@H]2CC[C@H](C)CC2)c(F)c1 [G, reference compound] | – |
| 50 to 150 | 500 to 1000 | 9.6 to 20 | – | – | CCn1nccc1C(=O)N[C@H](C(=O)Nc1ccc([C@H](C)[C@@H](NC(=O)COC)C(=O)N2CCN(C)[C@H](C)C2)cc1F)[C@H]1CC[C@H](C)CC1 [D, reference compound] | – |
| – | – | – | < 10 | 10 to 100 | CCn1nccc1C(=O)N[C@H](C(=O)Nc1ccc([C@H](C)[C@@H](NC(=O)COC)C(=O)N2C[C@@H](C)N(C)C[C@H]2C)cc1F)C(C1CC1)C1CC1 [Compound 286] | – |
